In patent publication US11780893B2, “Kv1.3 blockers” (Zealand Pharma A/S, priority 2019, dated 2023):
Where two headings read alike, the source gives them in different places. Bridge positions count the residues as written; N and C are the ends. Square brackets hold non-standard residues; d marks the D form. Peptide text beside a SMILES is read from it. Aad = N[C@@H](CCCC(=O)O)C(=O)O; Nle = CCCC[C@H](N)C(=O)O

Tests used:
[1] = target: T1, human Kv1.3 voltage-gated K+ channel (Homo sapiens, UniProt P22001); test: cell-based; details: inhibition of thallium flux, CHO-DUKX cells with human Kv1.3; read-out: IC50
T1 construct: host or cells: CHO-DUKX
T1 sequence (P22001 whole entry): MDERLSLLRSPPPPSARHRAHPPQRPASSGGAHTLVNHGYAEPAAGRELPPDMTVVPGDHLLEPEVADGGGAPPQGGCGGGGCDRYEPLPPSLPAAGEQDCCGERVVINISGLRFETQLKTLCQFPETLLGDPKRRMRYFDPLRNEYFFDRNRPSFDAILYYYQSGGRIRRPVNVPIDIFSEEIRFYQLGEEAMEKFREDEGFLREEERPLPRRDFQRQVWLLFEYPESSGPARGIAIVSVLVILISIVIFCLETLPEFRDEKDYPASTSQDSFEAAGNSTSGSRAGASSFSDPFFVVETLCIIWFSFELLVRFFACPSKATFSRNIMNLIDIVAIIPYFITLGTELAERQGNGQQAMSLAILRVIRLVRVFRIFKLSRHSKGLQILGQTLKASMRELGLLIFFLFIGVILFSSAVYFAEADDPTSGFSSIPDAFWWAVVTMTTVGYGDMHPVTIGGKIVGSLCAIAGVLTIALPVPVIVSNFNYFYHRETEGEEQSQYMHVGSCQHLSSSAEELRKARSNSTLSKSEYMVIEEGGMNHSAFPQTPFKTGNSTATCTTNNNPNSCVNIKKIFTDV

Rat whole blood = Rat whole blood (Rattus norvegicus, UniProt P15384)
Rat whole blood, sequence (P15384 whole entry): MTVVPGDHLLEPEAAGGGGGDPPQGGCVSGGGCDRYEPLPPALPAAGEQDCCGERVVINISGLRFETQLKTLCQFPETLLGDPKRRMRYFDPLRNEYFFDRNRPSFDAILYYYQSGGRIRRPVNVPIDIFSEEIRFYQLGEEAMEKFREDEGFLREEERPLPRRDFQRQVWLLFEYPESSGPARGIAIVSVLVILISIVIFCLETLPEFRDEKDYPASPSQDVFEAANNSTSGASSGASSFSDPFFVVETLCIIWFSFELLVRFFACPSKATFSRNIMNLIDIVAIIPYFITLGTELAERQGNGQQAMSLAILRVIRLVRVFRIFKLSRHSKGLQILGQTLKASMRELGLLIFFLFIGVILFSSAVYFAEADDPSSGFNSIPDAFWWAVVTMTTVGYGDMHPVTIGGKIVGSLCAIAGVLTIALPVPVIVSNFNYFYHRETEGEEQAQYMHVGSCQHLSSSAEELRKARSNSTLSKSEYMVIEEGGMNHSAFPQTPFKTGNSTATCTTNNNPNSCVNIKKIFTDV

[2] = inhibition of IL-17A release, thapsigargin, 24 Hr, at least 2 replicates

SMILES: CCCC[C@H](NC(=O)[C@@H]1CCCN1)C(=O)N[C@@H](CC(=O)O)C(=O)N[C@@H](CCCC)C(=O)N[C@@H](CCCNC(=N)N)C(=O)N[C@H]1CSSC[C@@H]2NC(=O)[C@H](CCCCN)NC(=O)CNC(=O)[C@H](Cc3ccccc3)NC(=O)[C@H]([C@@H](C)CC)NC(=O)[C@H](CO)NC(=O)CNC(=O)[C@H]([C@@H](C)CC)NC(=O)[C@H](C)NC(=O)[C@H](CCCC(N)=O)NC(=O)[C@H](CC(C)C)NC(=O)[C@@H]3CSSC[C@@H](C(=O)N[C@@H](Cc4ccc(O)cc4)C(=O)N4CCC[C@H]4C(=O)N[C@@H](CCCNC(=N)N)C(N)=O)NC(=O)[C@H](CCCCN)NC(=O)[C@H](CSSC[C@H](NC(=O)[C@H](CCC(=O)O)NC(=O)[C@H](C(C)C)NC(=O)[C@H](CO)NC(=O)[C@H](C)NC(=O)[C@H](CO)NC1=O)C(=O)N[C@@H](CCCCN)C(=O)N[C@@H](CCC(=O)O)C(=O)N[C@@H](CCCCN)C(=O)N3)NC(=O)[C@H](CCCCN)NC(=O)[C@H](CCCCN)NC(=O)[C@H](CC(N)=O)NC(=O)[C@H](CCCC)NC2=O [Compound 85] (H-P[Nle]D[Nle]RCSASVECKEKCL[Aad](NH2)AIGSIFGKC[Nle]NKKCKCYPR-NH2; disulfide 6-27, 12-32, 16-34)
- IC50 [1]: 0.15 nM
- IC50 (Rat whole blood; [2]): 1.4 nM

SMILES: CCCC[C@@H]1NC(=O)[C@@H]2CSSC[C@H](NC(=O)[C@H](CCCNC(=N)N)NC(=O)[C@H](CCCC)NC(=O)[C@H](CC(=O)O)NC(=O)[C@H](CCCC)NC(=O)[C@@H](N)CC(N)=O)C(=O)N[C@@H](CO)C(=O)N[C@@H](C)C(=O)N[C@@H](CO)C(=O)N[C@@H](C(C)C)C(=O)N[C@@H](CCC(=O)O)C(=O)N[C@H]3CSSC[C@H](NC(=O)[C@H](CCCCN)NC(=O)[C@H](CCCCN)NC(=O)[C@H](CC(N)=O)NC1=O)C(=O)N[C@@H](CCCCN)C(=O)N[C@H](C(=O)N[C@@H](Cc1ccc(O)cc1)C(=O)N1CCC[C@H]1C(=O)N[C@@H](CCCNC(=N)N)C(N)=O)CSSC[C@H](NC(=O)[C@H](CCCCN)NC(=O)[C@H](CCC(N)=O)NC(=O)[C@H](CCC(=O)O)NC3=O)C(=O)N[C@@H](CC(C)C)C(=O)N[C@@H](CCCCN)C(=O)N[C@@H](C)C(=O)N[C@@H]([C@@H](C)CC)C(=O)NCC(=O)N[C@@H](CO)C(=O)N[C@@H]([C@@H](C)CC)C(=O)N[C@@H](Cc1ccccc1)C(=O)NCC(=O)N[C@@H](CCCCN)C(=O)N2 [Compound 43] (H-N[Nle]D[Nle]RCSASVECEQKCLKAIGSIFGKC[Nle]NKKCKCYPR-NH2; disulfide 6-27, 12-32, 16-34)
- IC50 [1]: 0.5 nM
- IC50 (Rat whole blood): ≤ 1 nM
- IC50 (Rat whole blood; [2]): 0.99 nM

SMILES: CCCC[C@H](NC(=O)[C@@H]1CCCN1)C(=O)N[C@@H](CCC(=O)O)C(=O)N[C@@H](CCCC)C(=O)N[C@@H](CCCNC(=N)N)C(=O)N[C@H]1CSSC[C@@H]2NC(=O)[C@H](CCCCN)NC(=O)CNC(=O)[C@H](Cc3ccccc3)NC(=O)[C@H]([C@@H](C)CC)NC(=O)[C@H](CO)NC(=O)CNC(=O)[C@H]([C@@H](C)CC)NC(=O)[C@H](C)NC(=O)[C@H](CC(C)C)NC(=O)[C@H](CC(C)C)NC(=O)[C@@H]3CSSC[C@@H](C(=O)N[C@@H](Cc4ccc(O)cc4)C(=O)N4CCC[C@H]4C(=O)N[C@@H](CCCNC(=N)N)C(=O)O)NC(=O)[C@H](CCCCN)NC(=O)[C@H](CSSC[C@H](NC(=O)[C@H](CCC(=O)O)NC(=O)[C@H](C(C)C)NC(=O)[C@H](CO)NC(=O)[C@H](C)NC(=O)[C@H](CO)NC1=O)C(=O)N[C@@H](CCCCN)C(=O)N[C@@H](CCC(N)=O)C(=O)N[C@@H](CCCCN)C(=O)N3)NC(=O)[C@H](CCCCN)NC(=O)[C@H](CCCCN)NC(=O)[C@H](CC(N)=O)NC(=O)[C@H](CCCC)NC2=O [Compound 99] (H-P[Nle]E[Nle]RCSASVECKQKCLLAIGSIFGKC[Nle]NKKCKCYPR-OH; disulfide 6-27, 12-32, 16-34)
- IC50 [1]: 0.34 nM
- IC50 (Rat whole blood): ≤ 1 nM
- IC50 (Rat whole blood; [2]): 0.5 nM

SMILES: CCCC[C@H](NC(=O)[C@H](CC(=O)O)NC(=O)[C@H](CCCC)NC(=O)[C@@H](N)CO)C(=O)N[C@@H](CCCNC(=N)N)C(=O)N[C@H]1CSSC[C@@H]2NC(=O)[C@H](CCCCN)NC(=O)CNC(=O)[C@H](Cc3ccccc3)NC(=O)[C@H]([C@@H](C)CC)NC(=O)[C@H](CO)NC(=O)CNC(=O)[C@H]([C@@H](C)CC)NC(=O)[C@H](C)NC(=O)[C@H](C(C)C)NC(=O)[C@H](CC(C)C)NC(=O)[C@@H]3CSSC[C@@H](C(=O)N[C@@H](Cc4ccc(O)cc4)C(=O)N4CCC[C@H]4C(=O)N[C@@H](CCCNC(=N)N)C(N)=O)NC(=O)[C@H](CCCCN)NC(=O)[C@H](CSSC[C@H](NC(=O)[C@H](CCC(=O)O)NC(=O)[C@H](C(C)C)NC(=O)[C@H](CO)NC(=O)[C@H](C)NC(=O)[C@H](CO)NC1=O)C(=O)N[C@@H](CCCCN)C(=O)N[C@@H](CCC(N)=O)C(=O)N[C@@H](CCCCN)C(=O)N3)NC(=O)[C@H](CCCCN)NC(=O)[C@H](CCCCN)NC(=O)[C@H](CC(N)=O)NC(=O)[C@H](CCSC)NC2=O [Compound 78] (H-S[Nle]D[Nle]RCSASVECKQKCLVAIGSIFGKCMNKKCKCYPR-NH2; disulfide 6-27, 12-32, 16-34)
- IC50 [1]: 0.12 nM
- IC50 (Rat whole blood): ≤ 1 nM
- IC50 (Rat whole blood; [2]): 0.39 nM

SMILES: CC[C@H](C)[C@@H]1NC(=O)[C@H](C)NC(=O)[C@H](CCCCN)NC(=O)[C@H](CC(C)C)NC(=O)[C@@H]2CSSC[C@@H](C(=O)N[C@@H](Cc3ccc(O)cc3)C(=O)N3CCC[C@H]3C(=O)N[C@@H](CCCNC(=N)N)C(N)=O)NC(=O)[C@H](CCCCN)NC(=O)[C@@H]3CSSC[C@H](NC(=O)[C@H](CCC(=O)O)NC(=O)[C@H](C(C)C)NC(=O)[C@H](CO)NC(=O)[C@H](C)NC(=O)[C@H](CO)NC(=O)[C@@H](NC(=O)[C@H](CCCNC(=N)N)NC(=O)[C@H](CCSC)NC(=O)[C@H](CC(=O)O)NC(=O)[C@H](CCSC)NC(=O)[C@@H](N)CC(N)=O)CSSC[C@H](NC(=O)[C@H](CCCCN)NC(=O)CNC(=O)[C@H](Cc4ccccc4)NC(=O)[C@H]([C@@H](C)CC)NC(=O)[C@H](CO)NC(=O)[C@H](Cc4c[nH]cn4)NC1=O)C(=O)N[C@@H](CCSC)C(=O)N[C@@H](CC(N)=O)C(=O)N[C@@H](CCCCN)C(=O)N[C@@H](CCCCN)C(=O)N3)C(=O)N[C@@H](CCCCN)C(=O)N[C@@H](CCC(N)=O)C(=O)N[C@@H](CCCCN)C(=O)N2 [Compound 33] (H-NMDMRCSASVECKQKCLKAIHSIFGKCMNKKCKCYPR-NH2; disulfide 6-27, 12-32, 16-34)
- IC50 [1]: 0.14 nM
- IC50 (Rat whole blood): ≤ 1 nM
- IC50 (Rat whole blood; [2]): 0.7 nM

SMILES: CCCC[C@H](NC(=O)[C@H](CC(=O)O)NC(=O)[C@H](CCCC)NC(=O)[C@@H](N)CO)C(=O)N[C@@H](CCCNC(=N)N)C(=O)N[C@H]1CSSC[C@@H]2NC(=O)[C@H](CCCCN)NC(=O)CNC(=O)[C@H](Cc3ccccc3)NC(=O)[C@H]([C@@H](C)CC)NC(=O)[C@H](CO)NC(=O)CNC(=O)[C@H]([C@@H](C)CC)NC(=O)[C@H](C)NC(=O)[C@H](CCCCN)NC(=O)[C@H](CC(C)C)NC(=O)[C@@H]3CSSC[C@@H](C(=O)N[C@@H](Cc4ccc(O)cc4)C(=O)N4CCC[C@H]4C(=O)N[C@@H](CCCNC(=N)N)C(N)=O)NC(=O)[C@H](CCCCN)NC(=O)[C@H](CSSC[C@H](NC(=O)[C@H](CCC(=O)O)NC(=O)[C@H](C(C)C)NC(=O)[C@H](CO)NC(=O)[C@H](C)NC(=O)[C@H](CO)NC1=O)C(=O)N[C@@H](CCCCN)C(=O)N[C@@H](CCCC(=O)O)C(=O)N[C@@H](CCCCN)C(=O)N3)NC(=O)[C@H](CCCCN)NC(=O)[C@H](CCCCN)NC(=O)[C@H](CC(N)=O)NC(=O)[C@H](CCSC)NC2=O [Compound 73] (H-S[Nle]D[Nle]RCSASVECK[Aad]KCLKAIGSIFGKCMNKKCKCYPR-NH2; disulfide 6-27, 12-32, 16-34)
- IC50 [1]: 0.11 nM
- IC50 (Rat whole blood): ≤ 1 nM
- IC50 (Rat whole blood; [2]): 0.52 nM

SMILES: CCCC[C@@H]1NC(=O)[C@@H]2CSSC[C@H](NC(=O)[C@H](CCCNC(=N)N)NC(=O)[C@H](CCCC)NC(=O)[C@H](CC(=O)O)NC(=O)[C@H](CCCC)NC(=O)[C@@H](N)CO)C(=O)N[C@@H](CO)C(=O)N[C@@H](C)C(=O)N[C@@H](CO)C(=O)N[C@@H](C(C)C)C(=O)N[C@@H](CCC(=O)O)C(=O)N[C@H]3CSSC[C@H](NC(=O)[C@H](CCCCN)NC(=O)[C@H](CCCCN)NC(=O)[C@H](CC(N)=O)NC1=O)C(=O)N[C@@H](CCCCN)C(=O)N[C@H](C(=O)N[C@@H](Cc1ccc(O)cc1)C(=O)N1CCC[C@H]1C(=O)N[C@@H](CCCNC(=N)N)C(N)=O)CSSC[C@H](NC(=O)[C@H](CCCCN)NC(=O)[C@H](CCC(=O)O)NC(=O)[C@H](CCCCN)NC3=O)C(=O)N[C@@H](CC(C)C)C(=O)N[C@@H](CCC(N)=O)C(=O)N[C@@H](C)C(=O)N[C@@H]([C@@H](C)CC)C(=O)NCC(=O)N[C@@H](CO)C(=O)N[C@@H]([C@@H](C)CC)C(=O)N[C@@H](Cc1ccccc1)C(=O)NCC(=O)N[C@@H](CCCCN)C(=O)N2 [Compound 84] (H-S[Nle]D[Nle]RCSASVECKEKCLQAIGSIFGKC[Nle]NKKCKCYPR-NH2; disulfide 6-27, 12-32, 16-34)
- IC50 [1]: 0.084 nM
- IC50 (Rat whole blood): ≤ 1 nM
- IC50 (Rat whole blood; [2]): 0.69 nM

SMILES: CCCC[C@H](NC(=O)[C@@H]1CCCN1)C(=O)N[C@@H](CC(=O)O)C(=O)N[C@@H](CCCC)C(=O)N[C@@H](CCCNC(=N)N)C(=O)N[C@H]1CSSC[C@@H]2NC(=O)[C@H](CCCCN)NC(=O)CNC(=O)[C@H](Cc3ccccc3)NC(=O)[C@H]([C@@H](C)CC)NC(=O)[C@H](CO)NC(=O)CNC(=O)[C@H]([C@@H](C)CC)NC(=O)[C@H](C)NC(=O)[C@H](C)NC(=O)[C@H](CC(C)C)NC(=O)[C@@H]3CSSC[C@@H](C(=O)N[C@@H](Cc4ccc(O)cc4)C(=O)N4CCC[C@H]4C(=O)N[C@@H](CCCNC(=N)N)C(=O)O)NC(=O)[C@H](CCCCN)NC(=O)[C@H](CSSC[C@H](NC(=O)[C@H](CCC(=O)O)NC(=O)[C@H](C(C)C)NC(=O)[C@H](CO)NC(=O)[C@H](C)NC(=O)[C@H](CO)NC1=O)C(=O)N[C@@H](C)C(=O)N[C@@H](CCC(N)=O)C(=O)N[C@@H](CCCCN)C(=O)N3)NC(=O)[C@H](CCCCN)NC(=O)[C@H](CCCCN)NC(=O)[C@H](CC(N)=O)NC(=O)[C@H](CCSC)NC2=O [Compound 102] (H-P[Nle]D[Nle]RCSASVECAQKCLAAIGSIFGKCMNKKCKCYPR-OH; disulfide 6-27, 12-32, 16-34)
- IC50 [1]: 0.45 nM
- IC50 (Rat whole blood): ≤ 1 nM
- IC50 (Rat whole blood; [2]): 0.32 nM
